In patent US20200138921A1, “METHODS OF PREVENTING AND TREATING DISEASES CHARACTERIZED BY SYNAPTIC DYSFUNCTION AND NEURODEGENERATION INCLUDING ALZHEIMER'S DISEASE” (The Trustees of Columbia University in the City of New York, priority 2017, published 2020):

Experiments:
[1] = test system: primary hippocampal neurons; assay: Dendritic spine density in cultured hippocampal neurons (DiOlistic labeling); assay type: cell-based, rat; settings: oAβ for 24 hours
Method: (§1) The protocol for diolistic labeling of neurons was adapted from Gan et al. 2000 and Gan et al. 2009. Briefly, 100 mg of tungsten particles (1.1 μm diameter; Bio-Rad) were thoroughly precipitated with 5.0 mg of lipophilic dye (DiI; ThermoFisher) and dissolved in 100 μl of methylene chloride. Dye-coated particles were shot 2-3 times into the cells using the Helios gene gun system (Bio-Rad) and left in 0.1 M PBS overnight to allow dye diffusion along neuronal processes. Cells were post-fixed with 4% paraformaldehyde (Pierce) for 1 hour to preserve staining, then mounted onto glass slides using Gel Mount (Biomeda) and stored at 4° C. in the dark.
(§2) Labeled neurons were imaged using the Laser Scanning Microscope (LSM) 510 Meta confocal microscope (Zeiss), equipped with 40×1.3 NA and 100×1.4 NA oil-immersion objectives. The NIH Image software program ImageJ was used the quantify diolistic-labeled cultured neurons. An average of 12 compressed images (20 μm thick) consisting of pyramidal neurons were quantified for each treatment. Spines were counted with NeuronStudio software in a blinded manner and spine density was represented in number of spine per μm dendritic length. Statistical analysis was performed using the statistics package GraphPad Prism.
(§3) To further test whether increasing Ube3A could rescue the effects of oAβ, cultured primary hippocampal neurons (14 DIV) were pretreated with 300 nM of TOP or control PBS. The neurons were then treated with oAβ for 24 hours, and whole cell lysates prepared for Western blot analysis, or fixed for microscopy.

Ube3A = assay: Western blot of Ube3A protein in cultured primary hippocampal neurons; assay type: cell-based, rat
Method: (§4) Hippocampal neuron cultures from both male and female rat embryos (E17-18) were prepared following a slightly modified version of the method of Brewer et al. 1996. Hippocampal neurons were kept in culture at 37° C. with 5% CO2 in Neurobasal medium (ThermoFisher) with B27 (ThermoFisher) supplement and Glutamax (ThermoFisher) and plated at a density of 2.5×10^5 cell/ml on dishes coated with poly-D-lysine (ThermoFisher). For the experiments, neurons were used after 14-21 days in vitro (DIV). Rat neuroblastoma B35 cells were cultured and maintained in DMEM (ThermoFisher) supplemented with 10% fetal bovine serum (FBS; Invitrogen) and Glutamax (ThermoFisher).
(§5) Whole frozen mouse hippocampi, human brain specimens, and cultured cells were homogenized in RIPA buffer (ThermoFisher) supplemented with protease and phosphatase inhibitor cocktail (ThermoFisher), using a Teflon dounce homogenizer and centrifuged at 14,000 rpm for 10 minutes at 4° C. Supernatants were collected, normalized by BCA assay (ThermoFisher), and prepared for loading using sample buffer (SB) 4× (ThermoFisher) and dithiothreitol (DTT) 10× (ThermoFisher).
(§6) Cultured primary hippocampal neurons (14 DIV) were treated with 300 nM of a topoisomerase type I inhibitor, topotecan (TOP) or a vehicle control as described in Huang et al. 2012. Some cells were treated for 24 hours and some for 72 hours. All cells were harvested and whole cell lysates prepared for Western blot analysis of Ube3A and Ephixin-5.

RhoA-GTP = assay: Rho-GTPase activity pull-down assay in hippocampal neurons; assay type: cell-based, rat
Method: Rho-GTPase pull-down assays were performed following the manufacturer's protocol (Cytoskeleton, Inc.). Briefly, cells were washed once with ice-cold PBS and lysed with RIPA/M-PER buffer (1:1; ThermoFisher). Lysates were incubated on ice for 5 minutes, and centrifuged (12,000 g) for 5 minutes. 30 μl was used for input and the remaining lysates were incubated with Rhotekin-RBD (RhoA) or PAK-RBD (Rac1) protein beads (25 μl) by rotating for 1 hour at 4° C. Beads were washed with ice-cold PBS (500 μl, 3×) and collected, and bound proteins were eluted with 1× sample buffer (30 μl). Input and eluted samples were then analyzed by gel electrophoresis and Western blotting using either a RhoA or Rac1-specific antibody.
To test whether increasing Ube3A could rescue the effects of oAβ, cultured primary hippocampal neurons (14 DIV) were pretreated with 300 nM of TOP or control PBS. At day 3 the cells were treated with oligomeric Aβ for 6 hours and whole cell lysates prepared for Western blot analysis of Ube3A protein levels and levels of active GTPase levels including RhoA-GTP, Rac1-GTP and Cdc42-GTP.

PSD95 = assay: Western blot of PSD95 in hippocampal neurons; assay type: cell-based, rat; settings: neurons pretreated with 300 nM TOP, oAβ for 24 hours
Method: as §5, §3
Cells were also assessed for localization of PSD95 and NMDAR1, markers of postsynaptic terminals. Cells treated with TOP had increased levels of PSD95 and NMDAR1 (FIGS. 11B and 11C).

J20 mice = assay: Dendritic spine density in hippocampus of J20 mice; assay type: in vivo; settings: single TOP injection 275 μg
Method: as §1, §2
Controls were wild-type mice and J20 mice injected with PBS.

Ephexin-5 = assay: Western blot of Ephexin-5 in cultured primary hippocampal neurons; assay type: cell-based, rat
Method: as §4, §5, §6

EphB2 = assay: Western blot of surface expressed EphB2 in hippocampal neurons; assay type: cell-based, rat; settings: oAβ treated
Method: Enriched primary rat hippocampal neurons, cultured for 21 days in vitro, were treated with synthetic soluble oligomeric Aβ1-42 (hereinafter “oAβ”) for 24 hours. No cell death was detected under these conditions (data not shown).
Since Ube3A is also expressed in astrocytes (Grier et al. 2015), it was determined whether Ube3A levels were also altered in these cells.

p53 = assay: Western blot of p53 in hippocampal neurons; assay type: cell-based, rat; settings: Aβ for 8-10 hours
Method: as §5
As observed in the Tg2576 mice hippocampi, the levels of Ube3A inversely correlated with the levels of Arc and Ephexin-5. To determine whether this correlation was also observed in hippocampal neurons, the cells were treated with Aβ for 8-10 hours, and whole cell lysates were collected for Western blot analysis.

[2] = test system: primary hippocampal neurons; assay type: cell-based, rat; settings: neurons 21 DIV, oAβ for 24 hours (data not shown)
[3] = neurons pretreated with 300 nM TOP, oligomeric Aβ for 6 hours at day 3
[4] = neurons 21 DIV, oAβ for 24 hours

RhoA activity (RhoA-GTP; [3])	Compound	protection against oAβ-induced loss of dendritic spine density ([1]; neurons pretreated with 300 nM TOP)	Ube3A protein levels (Ube3A; neurons 14 DIV, 300 nM TOP, 24 or 72 hours, vs vehicle)	Ube3A protein levels (Ube3A; [3])	levels of PSD95 (PSD95)	dendritic spine density (J20 mice)	Ephexin-5 level (Ephexin-5; neurons 14 DIV, 300 nM TOP, vs vehicle)	dendritic spine density ([1]; neurons 21 DIV)	levels of surface expressed EphB2 protein (EphB2)	levels of p53 (p53)	levels of Ube3A protein (Ube3A; [4])	levels of active RhoA-GTP (RhoA-GTP; [4])	cell death [2]	levels of Ephexin-5 protein (Ephexin-5; hippocampal neurons, Aβ for 8-10 hours)
decreased	CC[C@@]1(O)C(=O)OCc2c1cc1n(c2=O)Cc2cc3c(CN(C)C)c(O)ccc3nc2-1 [TOP, topotecan]	complete protection	increased as early as 24 hours and persisted up to three days	increased	increased	significant increase	significant decrease							
	oAβ: synthetic soluble oligomeric Aβ1-42							significant decrease	decrease	did not show any altered levels	significant decrease	significant increase	No cell death	significant increase
